Where two headings read alike, the source gives them in different places.
Key:
[1] = tested on: human liver HepG2 cell line; test: Cholesterol biosynthesis in cultured human liver cell line HepG2 ([1,2-14C]acetate); format: cell-based; conditions: compared with AY9944, comparative drug
Description: Cultured human liver HepG2 cell line was grown on RPMI (Rosewell park Memorial Institute) 1640 culture medium containing 10% […] until 60% of monolayer are formed in a 60 mm culture dish. After replacing the medium with 3 ml of a fresh culture medium containing 10%(v/v) LPDS (Fetal calf lipoprotein-deficient serum), the cells were further grown for 48 hours until 90% of cultivation degree appear. The culture medium was removed and the cell was then washed with PBS. 2 ml of culture medium containing compound no. 8 (final concentration 100 μM) and AY-9944 (final concentration 1 μM) were added thereto. Then, the medium was cultivated at 37° C. for 1 hour under the condition of 95% air/5% carbonic acid gas. AY-9944 which is an inhibitor for sterol 7-reductase was used as a control drug for assuring the present experimental procedure on the inhibition of cholesterol biosynthesis. Thereafter, 3 μCi of [1 ,2-^14 C]acetate (72 mCi/mmol) were added thereto. The cultivation was continued for 2 hours so that the isotope is introduced into the cell and used as a precursor for sterol to be synthesized. Then, the culture medium was completely removed and washed with PBS twice and the cells were collected by scratching. 10 μg of cholesterol, 10 μg of lanosterol and [^3 H]cholesterol (30,000 dpm) were added thereto, and saponification reaction was carried out at 70° C. for an hour by adding 7.5% of methanolic KOH solution. Unsaponified sterol was removed by extracting them three times with 3 ml of petroleum ether and dried with nitrogen purging. The dried samples were redissolved in 200 μl of chloroform. An aliquot of the samples was loaded onto Silicagel 60F thin layer plate and then separated using ethyl acetate/hexane 25/75 (v/v) as the developing solvent. The thin layer film was developed by exposure to Amersham Hyperfilm at -70° C. for 7 days. Cholesterol band were confirmed by comparing the band appeared in the film and that appeared in the iodine-stained thin layer. After scratching the cholesterol band, it was quantified by a liquid scintillation counter.

sterol 14-reductase = molecular target: T1, sterol 14-reductase (Rattus norvegicus, UniProt A0ACM8Q6X4); test: Sterol 14-reductase assay with rat liver microsomes (substrate 4,4-dimethyl-5α-cholesta-7,14-dien-3β-ol, GLC); format: biochemical, Sprague-Dawley rats
T1 construct: to give a microsome which was used as an enzyme source of sterol 14-reductase; from tissue
T1 sequence (A0ACM8Q6X4 1-418): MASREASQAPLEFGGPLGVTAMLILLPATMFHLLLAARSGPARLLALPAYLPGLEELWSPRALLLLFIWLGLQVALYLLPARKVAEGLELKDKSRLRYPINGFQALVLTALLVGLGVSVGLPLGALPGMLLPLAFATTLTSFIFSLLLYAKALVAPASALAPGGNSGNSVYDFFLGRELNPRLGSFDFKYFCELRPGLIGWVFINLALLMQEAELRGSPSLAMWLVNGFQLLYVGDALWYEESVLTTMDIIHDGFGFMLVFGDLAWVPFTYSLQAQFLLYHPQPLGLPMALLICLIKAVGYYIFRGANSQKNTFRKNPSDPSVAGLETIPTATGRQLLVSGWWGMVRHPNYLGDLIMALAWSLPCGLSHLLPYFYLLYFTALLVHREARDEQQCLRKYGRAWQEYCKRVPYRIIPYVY
Description: First, a screening system for sterol 14-reductase was constructed in which 4,4-dimethyl-5α-cholesta-7,14-dien-3β-ol is used as a substrate and then, the effect on the activity of sterol 14-reductase was investigated in the screening system.
The animals were fasted for 12 hours before excising liver tissues and then sacrificed by decapitation at midnight. An aqueous solution containing 0.25M of sucrose was injected into the hepatic portal vein to remove all the blood within the liver, and then, the liver was excised. The liver was homogenated with two volummes of buffer solution 1 (0.1 M potassium phosphate , 1 mM reduced glutathione, 0.5 mM EDTA, 20% (v/v) glycerol, pH 7.4) by repeating pestles over 10 times and then, centrifuged with 900×g for 5 minutes to give a supernatant. The supernatant was centrifuged with 12,000×g for 20 minutes. The supernatant obtained was ultracentrifuged with 105,000×g for 90 minutes to give a microsome which was used as an enzyme source of sterol 14-reductase. Assay against sterol 14-reductase was carried out as follows: 60 nmol of 4,4-dimethyl-5α-cholesta-7,14-dien-3β-ol and the extract from Corydalis Turtschaninowii Besser dissolved into DMSO were added to an assay mixture (total volume 1.0 ml) containing 2 mg of microsomal protein, 2 mM of NADPH and 25 mg of glucose plus 20 units of glucose oxidase with preincubations under nitrogen at 37° C. for 4 min unless otherwise specified to establish anaerobic condition. Buffer A (0.1M potassium phosphate buffer, pH 7.4, including 1 mM reduced glutathione, 0.5 mM EDTA, and 20% (v/v) glycerol) used for incubation had been equilibrated with nitrogen, and nitrogen was exchanged for air in all sealed reaction flasks prior to the start of incubations. Incubation of the complete mixture was carried out anaerobically in sealed flasks for 10 min at 37° C. unless otherwise indicated. Incubations were terminated by the addition of 1 ml of ethanolic KOH followed by heating under reflux for 10 min. Sterols were extracted four times with 4 ml of petroleum ether, and the solvent was evaporated to dryness under a nitrogen stream. The resulting residue was dissolved in 200-500 μl of n-hexane for quantification by GLC at high sensitive attenuation. The activity of sterol 14-reductase was determined with the amount of the substrate wherein the double bonds of 14-carbon were reduced (for the amount reduced by 1 mg of the microsome protein for 1 minute).

Syrian Golden Hamster = test: In vivo effect on plasma lipids and glucose in Syrian Golden Hamster; conditions: for total cholesterol, LDL-cholesterol, and triglyceride levels (in words): Syrian Golden Hamster, compared with lovastatin; for Glucose, percent change in parentheses / HDL cholesterol, percent change in parentheses / LDL cholesterol, percent change in parentheses / Total cholesterol, percent change in parentheses / Trigly-ceride, percent change in parentheses: against normal diet control, 6.0 mg/kg/day; for Glucose / HDL cholesterol / LDL cholesterol / Total cholesterol / Trigly-ceride: normal diet + 6.0 mg/kg/day, oral, 14 days; for Glucose: hamster; for HDL cholesterol / LDL cholesterol / Total cholesterol / Trigly-ceride: hamster plasma
Description: In order to investigate the effect of the compound of formula (1) of the invention, the compound was orally administered into male Syrian Golden Hamsters having weights of 90~110 g and then blood was taken from each animal. Plasma lipids, i.e., total cholesterol, LDL-cholesterol, HDL-cholesterol and triglycerides were analyzed using an automatic analyzer (Automatic analyzer model Hitachi 7150).
Male Syrian Golden Hamsters weighing 90~110 g distributed from Samyuk Animal Laboratory, Seoul, Korea were bred under the following conditions: They were maintained under reverse light cycle (light cycle: from 6 P.M to 6 A.M; dark cycle: from 6 A.M. to 6 P.M.). The food and water were supplied at 10 A.M. The commercially available standard rodent chows were used. The hamsters were divided into 6 or 7 animals per group. The animals were fasted for 12 hours before administrating the drug. Then, dehydrocoridaline derivatives dissolved in a 0.25% methyl cellulose solution was administered orally for 14 days at the indicated time per a day. After fasting animals for 24 hours from the last administration, blood was extracted using a cardiac puncture and plasma was then isolated. Plasma lipids, i.e., total cholesterol, LDL-cholesterol, HDL-cholesterol and triglyceride values were analyzed using Automatic Analyzer (Hitachi 7150).

SD rats = test: Acute oral toxicity in SD rats; format: in vivo; conditions: for general symptoms, weight change and lethal case over two weeks: rat, in vivo
Description: (§1) Meanwhile, the toxicity of the compounds of the present invention was mvestigated as follows: i.e., the compounds were suspended into propylene glycol and then orally administered into each of 5 male and female SD rats at the age of 5-weeks that were fasted for 12 hours. Under the usual breeding conditions, general symptoms, weight change and lethal case of the above rats were monitored for two weeks. At the dose over 2,000 mg/kg of the compound nos. […] Rats were safe against the dose of 700 mg/kg of compound no. 8.

[2] = Acute oral toxicity in SD rats; format: in vivo; conditions: rat, in vivo, po, rats
Description: as §1

[3] = read-out: Enzyme Activity (relative in vitro activity for sterol 14-reductase, IC50 class)

| SMILES | cholesterol biosynthesis in human HepG2 cell line (in words) [1] | IC50 (sterol 14-reductase; [3]) [µM] | total cholesterol, LDL-cholesterol, and triglyceride levels (in words) (Syrian Golden Hamster) | Glucose, percent change in parentheses (Syrian Golden Hamster) [%] | HDL cholesterol, percent change in parentheses (Syrian Golden Hamster) | LDL cholesterol, percent change in parentheses (Syrian Golden Hamster) [%] | Total cholesterol, percent change in parentheses (Syrian Golden Hamster) [%] | Trigly-ceride, percent change in parentheses (Syrian Golden Hamster) [%] | Glucose (Syrian Golden Hamster) [mg/dL] | HDL cholesterol (Syrian Golden Hamster) [mg/dL] | LDL cholesterol (Syrian Golden Hamster) [mg/dL] | Total cholesterol (Syrian Golden Hamster) [mg/dL] | Trigly-ceride (Syrian Golden Hamster) [mg/dL] | general symptoms, weight change and lethal case over two weeks (SD rats) | LD50 at 336 h ([2]; female) [mg/kg] | LD50 at 336 h ([2]; male) [mg/kg] | safety of rats at single oral dose (SD rats; dose of 700 mg/kg, oral, SD rats) | IC50 (sterol 14-reductase; dissolved in DMSO, read-out: concentration of active ingredient in the assay at which 50% of inhibitory effect was observed (sterol 14-reductase)) [µM] |
| --- | --- | --- | --- | --- | --- | --- | --- | --- | --- | --- | --- | --- | --- | --- | --- | --- | --- | --- |
| CCc1c2[n+](cc3c(OC)c(OC)ccc13)CCc1cc3c(cc1-2)OCO3 [Compound No. 6, 13-Ethylberberine] | markedly inhibited | ≤ 1 | – | – | – | – | – | – | – | – | – | – | – | – | – | – | – | – |
| CCC(=O)CC1c2c(ccc(OC)c2OC)C(CC)=C2c3cc(OC)c(OC)cc3CCN21 (centres unmarked) [Compound No. 38, 8-(butan-2-one-1-yl)-13-ethyldihydropalmatine] | markedly inhibited | ≤ 1 | – | – | – | – | – | – | – | – | – | – | – | – | – | – | – | – |
| CCOc1cc2c(cc1OCC)-c1c(CC)c3ccc(OCC)c(OCC)c3c[n+]1CC2 [Compound No. 5, 2,3,9,10-Tetraethoxy-13-ethylberberine] | markedly inhibited | ≤ 1 | markedly decreased | -12.4 | -3.2% | -41.2 | -23.5 | -28.5 | 160.2 ± 20.9 | 51.1 ± 3.0 | 24.9 ± 3.0 | 97.0 ± 5.6 | 94.7 ± 11.5 | general symptoms and the body weight change of the animals were normal and the lethal case was not observed | > 5000 | > 5000 | – | – |
| CCc1c2[n+](cc3c(OC)c(OC)ccc13)CCc1cc(OC)c(OC)cc1-2 [Compound No. 8, 13-Ethylpalmatine] | markedly inhibited | ≤ 1 | markedly decreased | -10.9 | -1.8% | -42.0 | -25.4 | -31.7 | 162.2 ± 11.3 | 47.5 ± 3.0 | 24.5 ± 1.8 | 94.0 ± 6.6 | 90.4 ± 8.9 | – | > 760 | > 925 | safe | 100 to 3000 |
| CCC1=C2c3cc(OC)c(OC)cc3CCN2C(CC(C)=O)c2c1ccc(OC)c2OC (centres unmarked) [Compound No. 37, 8-Acetonyl-13-ethyldihydropalmatine] | markedly inhibited | ≤ 1 | markedly decreased | -23.0 | +2.0% | -52.1 | -33.5 | -48.1 | 140.4 ± 15 | 54.2 ± 3.0 | 20.2 ± 2.0 | 83.8 ± 5.6 | 68.8 ± 11.5 | general symptoms and the body weight change of the animals were normal and the lethal case was not observed | > 2000 | > 2500 | – | – |
| CCOc1cc2c(cc1OCC)C1=C(CC)c3ccc(OCC)c(OCC)c3CN1CC2 [Compound No. 47, 13-Ethyl-2,3,9,10-tetraethoxydihydroprotoberberine] | markedly inhibited | ≤ 1 | – | – | – | – | – | – | – | – | – | – | – | – | – | – | – | – |
| CCC1=C2c3cc(OC)c(OC)cc3CCN2Cc2c1ccc(OC)c2OC [Compound No. 46, 13-Ethyldihydropalmatine] | markedly inhibited | ≤ 1 | markedly decreased | -12.7 | -6.8% | -50.7 | -34.6 | -35.6 | 158.8 ± 16 | 49.2 ± 2.9 | 20.8 ± 2.3 | 82.4 ± 5.4 | 85.2 ± 11.0 | general symptoms and the body weight change of the animals were normal and the lethal case was not observed | > 3000 | > 3000 | – | – |
